Where two headings read alike, the source gives them in different places.
Legend:
Assay in all cases: Ras-Raf disruption / FRET / MOA assay (BRAF RBD)
Assay type in all cases: biochemical
KRAS G12D = KRAS G12D (Homo sapiens, UniProt P01116+P62937, G12D); conditions: Ras-Raf disruption, with Cyclophilin A; read-out: KRAS G12D FRET data IC50
Excerpt: (§1) Disruption of […] Ras-binding Domain (BRAF^RBD) Interaction with K-Ras by Compounds of the Invention (also Called a FRET Assay or an MOA Assay)
(§2) Note—The following protocol describes a procedure for monitoring disruption of K-Ras G12C (GMP-PNP) binding to BRAF^RBD by a compound of the invention. This protocol may also be executed substituting other Ras proteins or nucleotides, such as K-Ras G12D and K-Ras G13D.
(§3) The purpose of this biochemical assay was to measure the ability of test compounds to facilitate ternary complex formation between a nucleotide-loaded K-Ras isoform and Cyclophilin A; the resulting ternary complex disrupts binding to a BRAF^RBD construct, inhibiting K-Ras signaling through a RAF effector. Data is reported as IC50 values.
(§4) In assay buffer containing 25 mM HEPES pH 7.3, 0.002% Tween20, 0.1% BSA, 100 mM NaCl and 5 mM MgCl2, tagless Cyclophilin A, His6-K-Ras-GMPPNP, and GST-BRAF^RBD were combined in a 384-well assay plate at final concentrations of 25 μM, 12.5 nM, and 50 nM, respectively. Compound was present in plate wells as a 10-point 3-fold dilution series starting at a final concentration of 30 μM. After incubation at 25° C. for 3 hours, a mixture of anti-His Eu-W1024 and anti-GST allophycocyanin was then added to assay sample wells at final concentrations of 10 nM and 50 nM, respectively, and the reaction incubated for an additional 1.5 hours. […] Compounds that facilitate disruption of a K-Ras:RAF complex were identified as those eliciting a decrease in the TR-FRET ratio relative to DMSO control wells.

KRAS G12S = KRAS G12S (Homo sapiens, UniProt P01116+P62937, G12S); conditions: with Cyclophilin A
Excerpt: as §1, §2, §3, §4

KRAS G12V = KRAS G12V (Homo sapiens, UniProt P01116+P62937, G12V); conditions: with Cyclophilin A
Excerpt: as §1, §2, §3, §4

KRAS G13C = KRAS G13C (Homo sapiens, UniProt P01116+P62937, G13C); conditions: Ras-Raf disruption, with Cyclophilin A; read-out: KRAS G13C FRET data IC50
Excerpt: as §1, §2, §3, §4

KRAS G13D = KRAS G13D (Homo sapiens, UniProt P01116+P62937, G13D); conditions: with Cyclophilin A
Excerpt: as §1, §2, §3, §4

NRAS G12C = NRAS G12C (Homo sapiens, UniProt P01111+P62937, G12C); conditions: NRAS G12C; read-out: NRAS G12C FRET data IC50
Excerpt: as §1, §2, §3, §4

KRAS G12C = KRAS G12C (Homo sapiens, UniProt P01116+P62937, G12C); conditions: Ras-Raf disruption, with Cyclophilin A; read-out: KRAS G12C FRET data IC50
Excerpt: as §1, §2, §3, §4
as §3, with “is” for “was”, “Ras” for “K-Ras”, “cyclophilin” for “Cyclophilin”, “effector.” for “effector. Data is reported as IC50 values.”
In assay buffer containing 25 mM HEPES pH 7.3, 0.002% Tween20, 0.1% BSA, 100 mM NaCl and 5 mM MgCl2, tagless Cyclophilin A, His6-K-Ras-GMPPNP (or other Ras variant), and GST-BRAF^RBD are combined in a 384-well assay plate at final concentrations of 25 μM, 12.5 nM and 50 nM, respectively. Compound is present in plate wells as a 10-point 3-fold dilution series starting at a final concentration of 30 μM. After incubation at 25° C. for 3 hours, a mixture of Anti-His Eu-W1024 and anti-GST allophycocyanin is then added to assay sample wells at final concentrations of 10 nM and 50 nM, respectively, and the reaction incubated for an additional 1.5 hours. […] Compounds that facilitate disruption of a Ras:RAF complex are identified as those eliciting a decrease in the TR-FRET ratio relative to DMSO control wells.

KRAS WT = KRAS WT (Homo sapiens, UniProt P01116+P62937); conditions: with Cyclophilin A
Excerpt: as §1, §2, §3, §4

[1] = Ras-Raf disruption, read-out: KRAS G12S FRET data IC50
[2] = Ras-Raf disruption, read-out: KRAS G12V FRET data IC50
[3] = Ras-Raf disruption, read-out: KRAS G13D FRET data IC50
[4] = Ras-Raf disruption, read-out: KRAS WT FRET data IC50

Chain of KRAS G13D (P01116 1-169 isoform P01116-2 G13D limits assumed): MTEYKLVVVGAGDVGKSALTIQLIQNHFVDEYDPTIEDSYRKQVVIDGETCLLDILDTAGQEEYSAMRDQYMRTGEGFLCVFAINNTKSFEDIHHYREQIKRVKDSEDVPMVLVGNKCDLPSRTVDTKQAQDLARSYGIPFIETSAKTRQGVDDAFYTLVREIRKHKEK
Chain of KRAS G13D (P62937 whole entry): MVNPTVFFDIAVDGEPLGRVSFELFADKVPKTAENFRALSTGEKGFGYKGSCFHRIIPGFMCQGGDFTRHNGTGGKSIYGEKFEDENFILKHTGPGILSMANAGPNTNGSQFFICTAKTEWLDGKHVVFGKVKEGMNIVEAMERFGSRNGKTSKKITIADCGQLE
Chain of KRAS G13C (P01116 1-169 isoform P01116-2 G13C limits assumed): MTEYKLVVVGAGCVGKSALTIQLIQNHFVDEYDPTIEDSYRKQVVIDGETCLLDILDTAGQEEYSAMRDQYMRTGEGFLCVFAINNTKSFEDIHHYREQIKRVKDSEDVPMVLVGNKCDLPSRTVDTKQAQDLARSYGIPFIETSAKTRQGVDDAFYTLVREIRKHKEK
Chain of KRAS G13C (P62937 whole entry): as the sequence (P62937 whole entry) above
Chain of KRAS G12V (P01116 1-169 isoform P01116-2 G12V limits assumed): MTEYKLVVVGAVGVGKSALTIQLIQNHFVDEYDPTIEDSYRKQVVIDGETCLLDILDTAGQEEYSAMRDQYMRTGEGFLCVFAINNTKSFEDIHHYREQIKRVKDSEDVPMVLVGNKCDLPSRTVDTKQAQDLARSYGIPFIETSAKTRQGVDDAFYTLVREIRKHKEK
Chain of KRAS G12V (P62937 whole entry): as the sequence (P62937 whole entry) above
Chain of KRAS G12D (P01116 1-169 isoform P01116-2 G12D limits assumed): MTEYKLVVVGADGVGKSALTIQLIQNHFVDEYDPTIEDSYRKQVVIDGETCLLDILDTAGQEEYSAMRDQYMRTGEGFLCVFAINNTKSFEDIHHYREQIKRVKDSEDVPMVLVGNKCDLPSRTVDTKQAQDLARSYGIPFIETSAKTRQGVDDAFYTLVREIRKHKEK
Chain of KRAS G12D (P62937 whole entry, the tested form may be a part): as the sequence (P62937 whole entry) above
Chain of KRAS WT (P01116 1-169 isoform P01116-2 limits assumed): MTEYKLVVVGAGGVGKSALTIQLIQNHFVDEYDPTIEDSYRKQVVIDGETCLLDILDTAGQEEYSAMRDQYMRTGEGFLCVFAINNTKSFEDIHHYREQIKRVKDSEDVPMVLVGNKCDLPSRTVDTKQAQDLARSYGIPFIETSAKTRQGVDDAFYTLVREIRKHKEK
Chain of KRAS WT (P62937 whole entry): as the sequence (P62937 whole entry) above
Chain of NRAS G12C (P01111 whole entry G12C): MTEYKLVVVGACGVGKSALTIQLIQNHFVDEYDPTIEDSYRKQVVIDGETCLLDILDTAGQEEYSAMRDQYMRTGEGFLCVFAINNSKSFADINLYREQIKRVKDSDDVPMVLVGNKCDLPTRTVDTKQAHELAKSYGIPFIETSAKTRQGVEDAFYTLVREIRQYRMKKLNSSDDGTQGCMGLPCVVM
Chain of NRAS G12C (P62937 whole entry): as the sequence (P62937 whole entry) above
Chain of KRAS G12S (P01116 1-169 isoform P01116-2 G12S limits assumed): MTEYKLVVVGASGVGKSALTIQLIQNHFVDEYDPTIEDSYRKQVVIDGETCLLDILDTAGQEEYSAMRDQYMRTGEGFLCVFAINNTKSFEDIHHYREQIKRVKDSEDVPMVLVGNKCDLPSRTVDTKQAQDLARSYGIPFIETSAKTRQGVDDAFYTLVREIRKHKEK
Chain of KRAS G12S (P62937 whole entry): as the sequence (P62937 whole entry) above
Chain of KRAS G12C (P01116 1-169 isoform P01116-2 G12C limits assumed): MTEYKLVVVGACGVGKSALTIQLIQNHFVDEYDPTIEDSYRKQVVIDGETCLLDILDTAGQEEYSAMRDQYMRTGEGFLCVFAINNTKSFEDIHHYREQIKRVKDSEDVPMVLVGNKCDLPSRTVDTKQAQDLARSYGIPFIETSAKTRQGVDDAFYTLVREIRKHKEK
Chain of KRAS G12C (P62937 whole entry): as the sequence (P62937 whole entry) above

SMILES	IC50 (KRAS G12D)	IC50 (KRAS G12S; [1])	IC50 (KRAS G12V; [2])	IC50 (KRAS G13C)	IC50 (KRAS G13D; [3])	IC50 (NRAS G12C)	IC50 (KRAS G12C)	IC50 (KRAS WT; [4])	IC50 (KRAS G12S; KRAS G12S FRET data IC50, Ras-Raf disruption)	IC50 (KRAS G12V; KRAS G12V FRET data IC50, Ras-Raf disruption)	IC50 (KRAS G13D; KRAS G13D FRET data IC50, Ras-Raf disruption)	IC50 (KRAS WT; KRAS WT FRET data IC50, Ras-Raf disruption)
CCn1c(-c2cccnc2[C@H](C)OC)c2c3cc(ccc31)-c1cc(O)cc(c1)C[C@H](NC(=O)[C@H](C(C)C)N(C)C(=O)[C@H]1CCN(C(=O)[C@H]3CN3)C1)C(=O)N1CCC[C@H](N1)C(=O)OCC(C)(C)C2 (single isomer, unassigned) [Example 43B]	1 to 10 µM	1 to 10 µM	1 to 10 µM	1 to 10 µM	1 to 10 µM	0.01 to 0.1 µM	0.01 to 0.1 µM					
CCn1c(-c2cnccc2COC)c2c3cc(ccc31)-c1cccc(c1)C[C@H](NC(=O)[C@H](C(C)C)N(C)C(=O)CCN=C=NCCCSC)C(=O)N1CCC[C@H](N1)C(=O)OCC(C)(C)C2 [16 A and B]		> 10 µM			> 10 µM							
CCn1c(-c2cnccc2COC)c2c3cc(ccc31)-c1cccc(c1)C[C@H](NC(=O)[C@H](C(C)C)N(C)C(=O)CCN=C=NCCCN1CCOCC1)C(=O)N1CCC[C@H](N1)C(=O)OCC(C)(C)C2 [17 A and B]	1 to 10 µM	> 10 µM	> 10 µM	1 to 10 µM			0.01 to 0.1 µM	> 10 µM				
CCn1c(-c2cnccc2COC)c2c3cc(ccc31)-c1cccc(c1)C[C@H](NC(=O)[C@H](C(C)C)N(C)C(=O)CCN=C=NCc1ccc(OC)cc1)C(=O)N1CCC[C@H](N1)C(=O)OCC(C)(C)C2 [18 A and B]		> 10 µM	> 10 µM					> 10 µM				
CCn1c(-c2cnccc2COC)c2c3cc(ccc31)-c1cccc(c1)C[C@H](NC(=O)[C@H](C(C)C)N(C)C(=O)CCN=C=NCc1ccccc1)C(=O)N1CCC[C@H](N1)C(=O)OCC(C)(C)C2 [19 A and B]		> 10 µM	> 10 µM					> 10 µM				
CCn1c(-c2cnccc2COC)c2c3cc(ccc31)-c1cccc(c1)C[C@H](NC(=O)[C@H](C(C)C)N(C)C(=O)CCN=C=Nc1ccccc1OC)C(=O)N1CCC[C@H](N1)C(=O)OCC(C)(C)C2 [20 A and B]	> 10 µM	> 10 µM	> 10 µM		> 10 µM			> 10 µM				
CCCN=C=NCCC(=O)N(C)[C@H](C(=O)N[C@H]1Cc2cccc(c2)-c2ccc3c(c2)c(c(-c2cnccc2COC)n3CC)CC(C)(C)COC(=O)[C@@H]2CCCN(N2)C1=O)C(C)C [22 A and B]		1 to 10 µM	1 to 10 µM	0.1 to 1 µM	> 10 µM	0.01 to 0.1 µM	0.01 to 0.1 µM	1 to 10 µM				
CCn1c(-c2cnccc2COC)c2c3cc(ccc31)-c1cc(O)cc(c1)C[C@H](NC(=O)[C@H](C(C)C)N(C)C(=O)CN(C)C(=O)C1CN1)C(=O)N1CCC[C@H](N1)C(=O)OCC(C)(C)C2 (stereo partly shown) [32 A and B]									> 10 µM	> 10 µM	1 to 10 µM	> 10 µM
CCn1c(-c2cnccc2COC)c2c3cc(ccc31)-c1cc(O)cc(c1)C[C@H](NC(=O)[C@H](C(C)C)N(C)C(=O)c1ccc(NC(=O)[C@H]3CN3)cn1)C(=O)N1CCC[C@H](N1)C(=O)OCC(C)(C)C2 [47 A and B]	1 to 10 µM			0.01 to 0.1 µM								
CCn1c(-c2cnccc2COC)c2c3cc(ccc31)-c1cccc(c1)C[C@H](NC(=O)[C@H](C(C)C)N(C)C(=O)CCN=C=NCc1ccc(OC)cc1OC)C(=O)N1CCC[C@H](N1)C(=O)OCC(C)(C)C2 [61 A and B]	> 10 µM	> 10 µM	> 10 µM	> 10 µM	> 10 µM			> 10 µM				
CCn1c(-c2cnccc2COC)c2c3cc(ccc31)-c1cccc(c1)C[C@H](NC(=O)[C@H](C(C)C)N(C)C(=O)CC1(N=C=Nc3ccc(OC)cc3)CC1)C(=O)N1CCC[C@H](N1)C(=O)OCC(C)(C)C2 [65 A and B]	> 10 µM	> 10 µM	> 10 µM		> 10 µM	> 10 µM		> 10 µM				
CCn1c(-c2cnccc2COC)c2c3cc(ccc31)-c1cccc(c1)C[C@H](NC(=O)[C@H](C(C)C)N(C)C(=O)CCN=C=NCCc1cccs1)C(=O)N1CCC[C@H](N1)C(=O)OCC(C)(C)C2 [68 A and B]		> 10 µM	> 10 µM		> 10 µM			> 10 µM				
CCn1c(-c2cnccc2COC)c2c3cc(ccc31)-c1cccc(c1)C[C@H](NC(=O)[C@H](C(C)C)N(C)C(=O)[C@@H]1CCC(N=C=Nc3ccc(OC)cc3)C1)C(=O)N1CCC[C@H](N1)C(=O)OCC(C)(C)C2 (stereo partly shown) [70 A and B]		> 10 µM	> 10 µM		> 10 µM			> 10 µM				
CCn1c(-c2cnccc2COC)c2c3cc(ccc31)-c1cccc(c1)C[C@H](NC(=O)[C@H](C(C)C)N(C)C(=O)C1CCC(N=C=Nc3ccc(OC)cc3)C1)C(=O)N1CCC[C@H](N1)C(=O)OCC(C)(C)C2 (stereo partly shown) [71 A and B]	> 10 µM	> 10 µM	> 10 µM	> 10 µM	> 10 µM			> 10 µM				
CCn1c(-c2cnccc2COC)c2c3cc(ccc31)-c1cccc(c1)C[C@H](NC(=O)[C@H](C(C)C)N(C)C(=O)CCN=C=NC1(COC)CC1)C(=O)N1CCC[C@H](N1)C(=O)OCC(C)(C)C2 [72 A and B]		> 10 µM				0.1 to 1 µM		> 10 µM				
CCn1c(-c2cnccc2COC)c2c3cc(ccc31)-c1cccc(c1)C[C@H](NC(=O)[C@H](C(C)C)N(C)C(=O)CCN=C=NC(C)(C)C)C(=O)N1CCC[C@H](N1)C(=O)OCC(C)(C)C2 [79 A and B]	> 10 µM	> 10 µM			> 10 µM							
CCn1c(-c2cnccc2COC)c2c3cc(ccc31)-c1cccc(c1)C[C@H](NC(=O)[C@H](C(C)C)N(C)C(=O)CCN=C=NCc1ccccc1C)C(=O)N1CCC[C@H](N1)C(=O)OCC(C)(C)C2 [82 A and B]		> 10 µM	> 10 µM	> 10 µM	> 10 µM			> 10 µM				
CCn1c(-c2cccnc2[C@H](C)OC)c2c3cc(ccc31)-c1cc(O)cc(c1)C[C@H](NC(=O)[C@H](C(C)C)N(C)C(=O)C1CC3(C1)CN(C(=O)[C@H]1CN1)C3)C(=O)N1CCC[C@H](N1)C(=O)OCC(C)(C)C2 [Example 181]		0.1 to 1 µM	0.1 to 1 µM	0.01 to 0.1 µM	0.1 to 1 µM	0.01 to 0.1 µM	0.01 to 0.1 µM	0.1 to 1 µM				
CCn1c(-c2cccnc2[C@H](C)OC)c2c3cc(ccc31)-c1cc(O)cc(c1)C[C@H](NC(=O)[C@H](C(C)C)N(C)C(=O)N1CCN(C(=O)[C@@H]3CN3)C(=O)C1)C(=O)N1CCC[C@H](N1)C(=O)OCC(C)(C)C2 [Example 197]		0.01 to 0.1 µM	0.01 to 0.1 µM			0.01 to 0.1 µM	0.01 to 0.1 µM	0.01 to 0.1 µM				

From patent publication US20230233569A1 (Revolution Medicines, Inc., priority 2020, published 2023)
